Measurements as given in article PMC12434670 (Journal of Medicinal Chemistry, 2025).
Where two headings read alike, the source gives them in different places.

System: Virg09 virus clones with HA mutations
Assay type: cell-based, influenza A virus
[1] = read-out: Antiviral EC50 by MTS assay, mutant A81/82_1V
[2] = read-out: Antiviral EC50 by MTS assay, mutant D90_2G
[3] = read-out: Antiviral EC50 by MTS assay, mutant F118_1L
[4] = read-out: Antiviral EC50 by MTS assay, mutant S54_2P
[5] = read-out: Antiviral EC50 by MTS assay, mutant T301_1I
[6] = read-out: EC50 against all virus clones selected under VF-57a or RL-007

Row | SMILES | EC50 [1] [µM] | EC50 [2] [µM] | EC50 [3] [µM] | EC50 [4] [µM] | EC50 [5] [µM] | EC50 [6] [µM] | Activity against all viruses tested (in words)
1 | CC(C)c1ccccc1NCCN1CCCCC1 [RL-007, reference compound] | > 40 | > 40 | > 40 | > 40 | > 40 | > 40 | 
2 | O=C1c2c(O)c(=O)ccn2N([C@@H]2c3ccccc3SCc3c2ccc(F)c3F)[C@@H]2COCCN12 [BXA, baloxavir acid] | 0.003 ± 0.0007 | 0.0017 ± 0.0002 | 0.0025 ± 0.0005 | 0.0017 ± 0.0008 | 0.0019 ± 0.0001 |  | equally active
3 | Cc1cc(CNC(=O)c2cc(Cl)cc(C(F)(F)F)c2)c(C)s1 [Compound 23, 3-Chloro-N-[(2,5-dimethylthiophen-3-yl)methyl]-5-(trifluoromethyl)benzamide] | > 40 | > 40 | > 40 | > 40 | > 40 | > 40 | 
